Active and inactive are the calls of the source.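 Rule for the calls: active = combined score above 50, rising as EC50 falls below 10 µM and growth at top dose drops; inactive = the rest.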 Peptide text beside a SMILES is read from it. * marks the point of attachment. Cbz = O=C(OCc1ccccc1)*
Legend:
Assay in all cases: growth inhibition of S. cerevisiae strain panel, profiling panel, 26S proteasome disassembly project, secondary panel, OD600 (AID 2125)
Settings in all cases: growth OD600, 6-8 h
YE4006 = test system: YE4006
YE3965 = test system: YE3965
YE3963 = test system: YE3963
YE3962 = test system: YE3962
YE3955 = test system: YE3955
YE4010 = test system: YE4010
YE4012 = test system: YE4012
YE4005 = test system: YE4005
YE3957 = test system: YE3957
[1] = at 100 µM, hits give low values

## CC(=O)N1C(=O)C(=C2C=C(C)OC(C)=C2)c2ccccc21
YE4006
  EC50: 36 µM (inactive)
YE3965; [1]
  percent response (growth): 34.3% (inactive)
YE3963; [1]
  percent response (growth): 63.5% (inactive)
YE3962
  EC50: 0.16 µM
YE3955; [1]
  percent response (growth): 70.6% (inactive)
YE4010
  EC50: 0.13 µM
YE4012; [1]
  percent response (growth): 96.9% (inactive)
YE4005; [1]
  percent response (growth): 70.5% (inactive)
YE3957; [1]
  percent response (growth): 100% (inactive)

## CC(C)C[C@@H](C=O)NC(=O)[C@H](CC(C)C)NC(=O)[C@H](CC(C)C)NC(=O)OCc1ccccc1 (Cbz-Leu-Leu-Leu-aldehyde)
YE4006; [1]
  percent response (growth): 63.7% (inactive)
YE3965
  EC50: 1.05 µM
YE3963
  EC50: 0.93 µM
YE3962; [1]
  percent response (growth): 47.5% (inactive)
YE3955
  EC50: 0.9 µM
YE4010; [1]
  percent response (growth): 75.5% (inactive)
YE4012
  EC50: 1550 µM (inactive)
YE4005
  EC50: 1.24 µM
YE3957
  EC50: 2.86 µM

Reference: PubChem BioAssay AID2125 (NMMLSC, 2009)
